For assay [1], the system named is MDA-MB-231, human breast cancer cells. Briefly: Proliferation assay MDA-MB-231 (crystal violet, 4 days). It counts as cell-based. As to conditions: Homo sapiens, MDA-MB-231, 96 h, MDA-MB-231 cells, median, read-out: Prolif-MDA MB-231, IC50-[mol/l] (median). The method, boiled down:
(§1)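 Crystal violet proliferation read-out after 4 days of compound exposure (0.01-10 µmol/L; solvent 0.1% DMSO). Extinction at 595 nm, set between zero-point (0%) and vehicle (100%), fitted with 4 parameters to give IC50.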

The target in the next assay is CDK12/CycK (Homo sapiens, UniProt Q9NYV4). Put plainly: CDK12/CycK high ATP kinase assay (TR-FRET, 2 mM ATP). The format is biochemical. As to conditions: 2 mM ATP (high ATP); median; read-out: CDK12/CyclinK, 2 mM ATP (high ATP), IC50-[mol/l] (median). The method, boiled down: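 Read-out is TR-FRET (Eu-anti-rabbit IgG, anti-phospho-c-Myc Ser62 antibody, streptavidin-XL665) after EDTA stop. Reaction ran 60 min at 22 °C using 1 µM biotin-peptide and high ATP (2 mM) with roughly 0.75 nM recombinant CDK12/CycK, after 15 min compound pre-binding; normalised emission ratios yield IC50.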
For orientation: TR-FRET usually uses a lanthanide donor and a delayed reading to cut background.

For assay [2], the system named is CAL-120, human breast adenocarcinoma cells. Put plainly: Proliferation assay CAL-120 (crystal violet, 4 days). Particulars: Homo sapiens, CAL-120, 96 h, CAL-120 cells, median, read-out: Prolif-CAL-120, IC50-[mol/l] (median). The format is cell-based. In a few lines: as §1

Structures are written as SMILES.

CDK12/CycK, sequence (Q9NYV4 with tags, fused parts or gaps): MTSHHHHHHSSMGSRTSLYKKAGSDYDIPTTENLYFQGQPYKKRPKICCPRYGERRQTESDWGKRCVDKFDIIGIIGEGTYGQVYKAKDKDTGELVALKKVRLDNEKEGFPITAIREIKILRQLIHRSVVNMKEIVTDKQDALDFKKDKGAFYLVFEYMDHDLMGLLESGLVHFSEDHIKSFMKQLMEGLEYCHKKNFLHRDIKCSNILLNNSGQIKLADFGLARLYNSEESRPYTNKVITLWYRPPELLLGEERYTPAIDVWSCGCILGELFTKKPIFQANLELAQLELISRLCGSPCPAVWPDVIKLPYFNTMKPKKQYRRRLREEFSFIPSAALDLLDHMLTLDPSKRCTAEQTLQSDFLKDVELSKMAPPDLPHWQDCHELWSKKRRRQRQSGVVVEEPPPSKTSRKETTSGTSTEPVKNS
CDK12/CycK, sequence (O75909 1-300 partner limits assumed): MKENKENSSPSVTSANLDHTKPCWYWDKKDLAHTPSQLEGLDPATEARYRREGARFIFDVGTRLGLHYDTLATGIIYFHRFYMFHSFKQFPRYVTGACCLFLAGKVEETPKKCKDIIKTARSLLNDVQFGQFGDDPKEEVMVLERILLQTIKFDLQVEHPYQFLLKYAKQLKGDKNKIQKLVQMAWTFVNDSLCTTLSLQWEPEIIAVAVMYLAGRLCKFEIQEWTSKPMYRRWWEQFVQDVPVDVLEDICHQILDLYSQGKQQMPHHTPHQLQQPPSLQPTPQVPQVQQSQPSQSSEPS

Consider `FC(F)(F)c1cnn2c(NCc3nnc(-c4ccccc4)[nH]3)nc(N3CCOCC3)nc12` [Example 427, 2-(morpholin-4-yl)-N-[(5-phenyl-4H-1,2,4-triazol-3-yl)methyl]-8-(trifluoromethyl)pyrazolo[1,5-a][1,3,5]triazin-4-amine], for which the IC50 in assay [1] worked out at 113 nM; on CDK12/CycK, 1860 nM; in assay [2], 44 nM.
Taken in the same sequence, the figures for `COc1cccc2nc(CNc3nc(N4CCOCC4)nc4c(-c5ccnnc5)cnn34)[nH]c12.O=C(O)C(F)(F)F` [Example 439, trifluoroacetic acid N-[(7-methoxy-1H-benzimidazol-2-yl)methyl]-2-(morpholin-4-yl)-8-(pyridazin-4-yl)pyrazolo[1,5-a][1,3,5]triazin-4-amine] were 180 nM, 3950 nM and 36.3 nM.
Taken in the same sequence, the figures for `FC(F)Cc1cnn2c(NCc3nc4ccccc4[nH]3)nc(N3CCOCC3)nc12.O=C(O)C(F)(F)F` [Example 444, trifluoroacetic acid N-[(1H-benzimidazol-2-yl)methyl]-8-(2,2-difluoroethyl)-2-(morpholin-4-yl)pyrazolo[1,5-a][1,3,5]triazin-4-amine] were 69.1 nM, 8510 nM and 14.9 nM.
Taken in the same sequence, the figures for `Fc1ccc2[nH]c(CNc3nc(N4CCOCC4)nc4c(-c5nccs5)cnn34)nc2c1F` [Example 413, N-[(4,5-difluoro-1H-benzimidazol-2-yl)methyl]-2-(morpholin-4-yl)-8-(1,3-thiazol-2-yl)pyrazolo [1,5-a][1,3,5]triazin-4-amine] were 298 nM, above 20000 nM and 69.9 nM.
As for `Cc1cnn2c(NCc3nc4ccccc4[nH]3)nc(N3CCN(C)CC3)nc12` [Example 396, N-[(1H-benzimidazol-2-yl)methyl]-8-methyl-2-(4-methylpiperazin-1-yl)pyrazolo[1,5-a][1,3,5]triazin-4-amine], the results for the IC50 (in assay [1]; on CDK12/CycK; in assay [2]) were 157 nM, above 20000 nM and 55 nM, respectively.
On the same counts, the results for `COc1ccccc1-c1nnc(CNc2nc(N3CCOCC3)nc3c(Br)cnn23)[nH]1` [Example 61, 8-bromo-N-{[5-(2-methoxyphenyl)-4H-1,2,4-triazol-3-yl]methyl}-2-(morpholin-4-yl)pyrazolo[1,5-a][1,3,5]triazin-4-amine] are 30.8 nM, above 20000 nM and 24.3 nM.
On the same counts, the results for `FC(F)n1cc(-c2cnn3c(NCc4nc5cc(Cl)c(Cl)cc5[nH]4)nc(N4CCOCC4)nc23)cn1` [Example 423, N-[(5,6-dichloro-1H-benzimidazol-2-yl)methyl]-8-[1-(difluoromethyl)-1H-pyrazol-4-yl]-2-(morpholin-4-yl)pyrazolo[1,5-a][1,3,5]triazin-4-amine] are 18.2 nM, above 12900 nM and 12.3 nM.
On the same counts, the results for `Fc1ccc2[nH]c(CNc3nc(N4CCOCC4)nc4c(-c5cncs5)cnn34)nc2c1F.O=C(O)C(F)(F)F` [Example 442, trifluoroacetic acid N-[(4,5-difluoro-1H-benzimidazol-2-yl)methyl]-2-(morpholin-4-yl)-8-(1,3-thiazol-5-yl)pyrazolo[1,5-a][1,3,5]triazin-4-amine] are 6.38 nM, 583 nM and 2.61 nM.
In the case of `Cc1cnn2c(NCc3nc4c(F)c(F)ccc4[nH]3)nc(N3CCN(C)CC3)nc12` [Example 394, N-[(4,5-difluoro-1H-benzimidazol-2-yl)methyl]-8-methyl-2-(4-methylpiperazin-1-yl)pyrazolo[1,5-a][1,3,5]triazin-4-amine], the IC50 in assay [1] is 19.8 nM; at CDK12/CycK it was above 18700 nM; in assay [2] it was 4.32 nM.
Regarding `Brc1cnn2c(NCc3nc4ccccc4[nH]3)nc(OC3CCOCC3)nc12` [Example 405, N-[(1H-benzimidazol-2-yl)methyl]-8-bromo-2-[(oxan-4-yl)oxy]pyrazolo[1,5-a][1,3,5]triazin-4-amine], the IC50 in assay [1] is 439 nM; on CDK12/CycK it was above 20000 nM; in assay [2], 135 nM.
Taken in the same sequence, the figures for `Cn1cc(-c2cnn3c(NCc4nc5cc(Cl)c(Cl)cc5[nH]4)nc(N4CCOCC4)nc23)cn1` [Example 419, N-[(5,6-dichloro-1H-benzimidazol-2-yl)methyl]-8-(1-methyl-1H-pyrazol-4-yl)-2-(morpholin-4-yl)pyrazolo[1,5-a][1,3,5]triazin-4-amine] were 228 nM, above 20000 nM and 79.5 nM.
Taken in the same sequence, the figures for `CN1CCN(c2nc(NCc3nc4c(F)c(F)ccc4[nH]3)n3ncc(CC(F)(F)F)c3n2)CC1` [Example 437, N-[(4,5-difluoro-1H-benzimidazol-2-yl)methyl]-2-(4-methylpiperazin-1-yl)-8-(2,2,2-trifluoroethyl) pyrazolo[1,5-a][1,3,5]triazin-4-amine] were 45.8 nM, above 20000 nM and 10.9 nM.
Taken in the same sequence, the figures for `CC(C)COc1nc(NCc2nc3ccccc3[nH]2)n2ncc(Br)c2n1` [Example 409, N-[(1H-benzimidazol-2-yl)methyl]-8-bromo-2-(2-methylpropoxy)pyrazolo[1,5-a][1,3,5]triazin-4-amine] were 343 nM, above 15800 nM and 99 nM.
For `Cc1cnn2c(NCc3nc4ccccc4[nH]3)nc(N3CCOCC3)nc12` [Example 393, N-[(1H-benzimidazol-2-yl)methyl]-8-methyl-2-(morpholin-4-yl)pyrazolo[1,5-a][1,3,5]triazin-4-amine], the figures for the IC50 (in assay [1]; at CDK12/CycK; in assay [2]) were 120 nM, above 20000 nM and 46.8 nM, respectively.
Taken in the same sequence, the figures for `CN1CCN(c2nc(NCc3nc4ccccc4[nH]3)n3ncc(CC(F)(F)F)c3n2)CC1` [Example 436, N-[(1H-benzimidazol-2-yl)methyl]-2-(4-methylpiperazin-1-yl)-8-(2,2,2-trifluoroethyl)pyrazolo [1,5-a][1,3,5]triazin-4-amine] were 416 nM, above 20000 nM and 108 nM.
Taken in the same sequence, the figures for `Brc1cnn2c(NCc3nc4ccccc4[nH]3)nc(OCCN3CCCC3)nc12` [Example 404, N-[(1H-benzimidazol-2-yl)methyl]-8-bromo-2-[2-(pyrrolidin-1-yl)ethoxy]pyrazolo[1,5-a][1,3,5]triazin-4-amine] were 1840 nM, above 20000 nM and 189 nM.
For the compound `COC(C)(C)COc1nc(NCc2nc3ccccc3[nH]2)n2ncc(Br)c2n1` [Example 403, N-[(1H-benzimidazol-2-yl)methyl]-8-bromo-2-(2-methoxy-2-methylpropoxy)pyrazolo[1,5-a][1,3,5]triazin-4-amine], the IC50 in assay [1] is 524 nM; on CDK12/CycK it was above 20000 nM; in assay [2], 151 nM.
Regarding `COc1ccccc1-c1nnc(CNc2nc(N3CCN(C)CC3)nc3c(C4CC4(F)F)cnn23)[nH]1` (stereo not drawn) [Example 430, 8-(2,2-difluorocyclopropyl)-N-{[5-(2-methoxyphenyl)-4H-1,2,4-triazol-3-yl]methyl}-2-(4-methylpiperazin-1-yl)pyrazolo[1,5-a][1,3,5]triazin-4-amine], the IC50 in assay [1] is 81.5 nM; on CDK12/CycK, above 20000 nM; in assay [2], 38.6 nM.
Turning to `NCCOCCOCCNc1nc(NCc2nc3ccccc3[nH]2)n2ncc(Br)c2n1` [Example 412, N2-{2-[2-(2-aminoethoxy)ethoxy]ethyl}-N4-[(1H-benzimidazol-2-yl)methyl]-8-bromopyrazolo[1,5-a][1,3,5]triazine-2,4-diamine], the results for the IC50 (in assay [1]; on CDK12/CycK; in assay [2]) were 1910 nM, above 5710 nM and 1130 nM, respectively.
Consider `Clc1cc2nc(CNc3nc(N4CCOCC4)nc4c(-c5cscn5)cnn34)[nH]c2cc1Cl` [Example 424, N-[(5,6-dichloro-1H-benzimidazol-2-yl)methyl]-2-(morpholin-4-yl)-8-(1,3-thiazol-4-yl)pyrazolo [1,5-a][1,3,5]triazin-4-amine], for which the IC50 in assay [1] was 73.7 nM; on CDK12/CycK, above 20000 nM; in assay [2], 41.1 nM.
On the same counts, the results for `FC(F)n1cc(-c2cnn3c(NCc4nc5ccccc5[nH]4)nc(N4CCOCC4)nc23)cn1` [Example 421, N-[(1H-benzimidazol-2-yl)methyl]-8-[1-(difluoromethyl)-1H-pyrazol-4-yl]-2-(morpholin-4-yl)pyrazolo[1,5-a][1,3,5]triazin-4-amine] are 87.5 nM, 8580 nM and 38.3 nM.
Taken in the same sequence, the figures for `O=C(O)C(F)(F)F.c1ccc2[nH]c(CNc3nc(N4CCOCC4)nc4c(-c5cncs5)cnn34)nc2c1` [Example 441, trifluoroacetic acid-N-[(1H-benzimidazol-2-yl)methyl]-2-(morpholin-4-yl)-8-(1,3-thiazol-5-yl)pyrazolo[1,5-a][1,3,5]triazin-4-amine (1/1)] were 28.5 nM, 4180 nM and 7.69 nM.
With `CCc1cnn2c(NCc3nc4c(F)c(F)ccc4[nH]3)nc(N3CCOCC3)nc12` [Example 432, N-[(4,5-difluoro-1H-benzimidazol-2-yl)methyl]-8-ethyl-2-(morpholin-4-yl)pyrazolo[1,5-a][1,3,5]triazin-4-amine], the figures for the IC50 (in assay [1]; on CDK12/CycK; in assay [2]) were 8.53 nM, 2300 nM and 3.66 nM, respectively.
